From US10124065B2, “Lipids and lipid compositions for the delivery of active agents” (Novartis AG, priority 2013, dated 2018)
“And” between values parts separate entries of the source, which are not always exact repeats. Identical values can stand only once.

Assays:
[1] = Polydispersity index (PDI) of lipid nanoparticle (dynamic light scattering); type: physicochemical; conditions: FVII siRNA LNP; Chol/DSPC/S010, molar ratio 45/44/9/2
Experimental: Unless indicated otherwise, all PDIs referred to herein are the PDI of the fully formed nanoparticle, as measured by dynamic light scattering on a Malvern Zetasizer. The nanoparticle sample was diluted in phosphate buffered saline (PBS) so that the count rate was approximately 200-400 kcts. The data is presented in Tables 4 and 5 as a weighted average of the intensity measure.

[2] = Particle size of lipid nanoparticle (dynamic light scattering, Malvern Zetasizer); type: physicochemical; conditions: FVII siRNA LNP; Chol/DSPC/S010, molar ratio 45/44/9/2; Z-average
Excerpt: The lipid nanoparticles have a size of about 1 to about 2,500 nm, about 1 to about 1,500 nm, about 1 to about 1,000 nm, in a sub-embodiment about 50 to about 600 nm, in a sub-embodiment about 50 to about 400 nm, in a sub-embodiment about 50 to about 250 nm, and in a sub-embodiment about 50 to about 150 nm. Unless indicated otherwise, all sizes referred to herein are the average sizes (diameters) of the fully formed nanoparticle, as measured by dynamic light scattering on a Malvern Zetasizer. The nanoparticle sample is diluted in phosphate buffered saline (PBS) so that the count rate is approximately 200-400 kcts. The data is presented as a weighted average of the intensity measure. Unless indicated otherwise, all particle size measurements referred to in Tables 4 and 5 are the Z-average particle size of the fully formed nanoparticle, as measured by dynamic light scattering on a Malvern Zetasizer. The nanoparticle sample was diluted in phosphate buffered saline (PBS) so that the count rate is approximately 200-400 kcts.

[3] = tested on: respiratory syncytial virus F protein; assay: Immunization studies, anti-RSV-F titers; type: in vivo; conditions: anti-RSV-F titer; BALB/c; course A = days 0 & 21; 4 weeks after second dose; liposomes with 0.1 μg vA317 replicon (naked: 1 μg)
Experimental: BALB/c were immunized with liposomes comprising DSPC, cholesterol, and various lipids of the invention (or, for comparison, the cationic lipid 1,2-dilinoleyloxy-N,N-dimethyl-3-aminopropane or ‘DLinDMA’). The liposomes encapsulated 0.1 μg of “vA317” self-replicating RNA replicon which encodes respiratory syncytial virus F protein (see WO2012/031043). […] Doses were given either on days 0 & 21 or days 0 & 42. Immune responses were assessed 2 weeks after each dose (2wp1, 2wp2), and in some cases also at 4 weeks after the second dose (4wp2).

[4] = tested on: plasma Factor VII enzyme activity; assay: Mouse Factor VII dosing / Factor VII Activity Assay; type: in vivo; conditions: percent knock down of plasma Factor VII activity, CD-1 mice, 48 h; for KD FVII 0.03 mg/kg: single IV dose 0.03 mg/kg, LNP Chol/DSPC/S010 45/44/9/2
Experimental: Female CD-1 mice were received from Harlan Labs and maintained on standard lab chow and water ad libitum. The animals weighed approximately 25 grams at time of dosing. Formulated Factor VII siRNA was administered as a single dose intravenously via the lateral tail vein. Approximately 48 hours after injection, the mice were euthanized by CO2 inhalation followed by exsanguination through the vena cava. […] Plasma collected from injected mice was assayed for Factor VII enzyme activity using the Biophen FVII kit from Hyphen Biomedical (catalog number 221304). An assay standard curve was prepared using pooled plasma aliquots from the vehicle control animals. All samples were diluted to fall within the linear range of the standard curve and Factor VII activity relative to control plasma was reported. Lipid nanoparticles comprising lipid compounds of formula (I) and the FVII siRNA duplex sequence listed above were tested in the Factor VII Activity Assay. The results of this assay are given in Table 4 below as a percent knock down of plasma Factor VII enzyme activity at a dose of 0.3 mg/kg and 0.03 mg/kg.

Row | Structure (SMILES) | PDI [1] | Size (nm) [2] [nm] | 4wp2 pool 1 [3] | 4wp2 pool 2 [3] | KD FVII 0.03 mg/kg [4] [%] | KD FVII 0.3 mg/kg ([4]; single IV dose 0.3 mg/kg, LNP Chol/DSPC/PEG-DMG 45/44/9/2) [%]
1 | CCCCC/C=C\C/C=C\CCCCCCCCOc1cc(COC(=O)CCN(C)C)cc(OCCCCCCCC/C=C\C/C=C\CCCCC)c1 [Example 14, 3,5-bis((9Z,12Z)-octadeca-9,12-dien-1-yloxy)benzyl 3-(dimethylamino)propanoate] | 0.059 | 81.74 | 13687 and 21375 | 18851 and 21347 | – | –
2 | CCCCCCCCOC(=O)CCCCCCCC(=O)OCCCOc1cc(CN(C)C)cc(OCCCOC(=O)CCCCCCCC(=O)OCCCCCCCC)c1 [Ex. 98, O′^1,O^1-(((5-((dimethylamino)methyl)-1,3-phenylene)bis(oxy))bis(propane-3,1-diyl)) 9-dioctyl dinonanedioate] | 0.096 | 164.6 | – | – | – | –
3 | CCCCC/C=C\C/C=C\CCCCCCCC(=O)OCCCOc1cc(CN(C)C)cc(OCCCOC(=O)CC(CCCCCCCC)CCCCCCCC)c1 [Ex. 97, (9Z,12Z)-3-(3-((dimethylamino)methyl)-5-(3-((3-octylundecanoyl)oxy)propoxy)phenoxy)propyl octadeca-9,12-dienoate] | 0.106 | 98.01 | – | – | – | –
4 | CCCCC/C=C\C/C=C\CCCCCCCC(=O)OCCCCOc1cc(CN(C)C)cc(OCCCCOC(=O)CC(CCCCCCCC)CCCCCCCC)c1 [Ex. 109, (9Z,12Z)-4-(3-((dimethylamino)methyl)-5-(4-((3-octylundecanoyl)oxy)butoxy)phenoxy)butyl octadeca-9,12-dienoate] | 0.09 | 91.98 | – | – | 68.97 | –
5 | CCCCCCCC(=O)OCCCCCCCCCCOc1cc(CN(CC)CC)cc(OCCCCCCCCCCOC(=O)CCCCCCC)c1OCCCCCCCCCCOC(=O)CCCCCCC [Ex. 100, ((5-((diethylamino)methyl)benzene-1,2,3-triyl)tris(oxy))tris(decane-10,1-diyl)trioctanoate] | – | – | – | – | 26.9 | 94.0
6 | CCCCCCCC(=O)OCC(COC(=O)CCCCCCC)OC(=O)CCC(=O)OCc1cc(COC(=O)CCC(=O)OC(COC(=O)CCCCCCC)COC(=O)CCCCCCC)cc(CN(C)C)c1 [Ex. 107, bis(1,3-bis(octanoyloxy)propan-2-yl) O,O′-((5-((dimethylamino)methyl)-1,3-phenylene)bis(methylene))disuccinate] | 0.071 | 191.7 | – | – | – | –
7 | CCCCCCCC(=O)OC[C@@H](CCOc1cc(CN(C)C)cc(OCC[C@H](COC(=O)CCCCCCC)OC(=O)CCCCCCC)c1)OC(=O)CCCCCCC [Example 94, (R)-4-(3-((R)-3,4-bis(octanoyloxy)butoxy)-5-((dimethylamino)methyl)phenoxy)butane-1,2-diyldioctanoate] | – | – | – | – | 90 | –

Continued, in another order:

Row | PDI [1] | Size (nm) [2] [nm] | Structure (SMILES) | 4wp2 pool 1 [3] | 4wp2 pool 2 [3] | KD FVII 0.03 mg/kg [4] [%] | KD FVII 0.3 mg/kg ([4]; single IV dose 0.3 mg/kg, LNP Chol/DSPC/PEG-DMG 45/44/9/2) [%]
8 | 0.049 | 81.16 | CCCCC/C=C\C/C=C\CCCCCCCCOc1cc(COC(=O)CCN(C)C)cc(OCCCCCCCC/C=C\C/C=C\CCCCC)n1 [Example 31, (2,6-bis((9Z,12Z)-octadeca-9,12-dien-1-yloxy)pyridin-4-yl)methyl 3-(dimethylamino)propanoate] | – | – | – | –
9 | 0.014 | 154.1 | CCCCC/C=C\C/C=C\CCCCCCCCOC(=O)CCC(=O)OCc1cc(COC(=O)CCC(=O)OCCCCCCCC/C=C\C/C=C\CCCCC)cc(CN(C)C)c1 [Example 77, O,O′-((5-((dimethylamino)methyl)-1,3-phenylene)bis(methylene))di((9Z,12Z)-octadeca-9,12-dien-1-yl)disuccinate] | – | – | – | –
10 | 0.076 | 101.5 | CCCCC/C=C\C/C=C\CCCCCCCCOC(=O)CCCCOc1cc(CN(C)C)cc(OCCCCC(=O)OCCCCCCCC/C=C\C/C=C\CCCCC)c1 [Example 89, di((9Z,12Z)-octadeca-9,12-dien-1-yl) 5,5′-((5-((dimethylamino)methyl)-1,3-phenylene)bis(oxy))dipentanoate] | – | – | – | –
11 | 0.005 | 128.5 | CCCCCCCCCC(=O)OCCCCCCCC(=O)OCc1cc(COC(=O)CCCCCCCOC(=O)CCCCCCCCC)cc(CN(C)C)c1 [Example 83] | – | – | – | –
